Measured values taken from patent US20230073777A1, “CYCLIC-AMP RESPONSE ELEMENT BINDING PROTEIN (CBP) AND/OR ADENOVIRAL E1A BINDING PROTEIN OF 300 KDA (P300) DEGRADATION COMPOUNDS AND METHODS OF USE” (CULLGEN (SHANGHAI), INC., priority 2019, published 2023).
Read-outs that look alike come from different tables or passages of the source. Blank lines part the entries; values can stand above or below the molecule they belong to.

What was measured:
[1] = system: LNCaP cells; experiment: LNCaP cell viability assay (CellTiter-Glo); format: cell-based; details: Homo sapiens, 72 h, LNCaP prostate cancer cell viability inhibition, 3 days
Summary of the method: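 Three-day treatment of LNCaP cells (5000 per well) across a 12-point, 3-fold dilution series starting at 10 μM. ATP luminescence (CellTiter-Glo) relative to untreated controls gave dose-response curves fitted nonlinearly for IC50.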

[2] = biological target: P300 (Homo sapiens, UniProt Q09472); experiment: Immunoblotting of P300 protein levels in LNCaP or 22RV1 cells; format: cell-based; parameters: LNCaP or 22RV1 cells that express CBP/P300 proteins were treated with GNE-781 or the bivalent compounds; endogenous in cells; host or cells: LNCaP (clone FGC) or 22RV1 cells; details: read-out: Degradation (10 nM)
Summary of the method: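 P300/CBP levels quantified by chemiluminescent immunoblot band densitometry, normalized against tubulin or vinculin loading controls. Lysates came from LNCaP or 22RV1 cells exposed to compounds or DMSO vehicle for indicated times.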

[3] = percentage of inhibition of p300 at 10 nM (Table 2)
[4] = percentage of inhibition of p300 at 10 nM (Table 3)

P300, sequence (Q09472 whole entry): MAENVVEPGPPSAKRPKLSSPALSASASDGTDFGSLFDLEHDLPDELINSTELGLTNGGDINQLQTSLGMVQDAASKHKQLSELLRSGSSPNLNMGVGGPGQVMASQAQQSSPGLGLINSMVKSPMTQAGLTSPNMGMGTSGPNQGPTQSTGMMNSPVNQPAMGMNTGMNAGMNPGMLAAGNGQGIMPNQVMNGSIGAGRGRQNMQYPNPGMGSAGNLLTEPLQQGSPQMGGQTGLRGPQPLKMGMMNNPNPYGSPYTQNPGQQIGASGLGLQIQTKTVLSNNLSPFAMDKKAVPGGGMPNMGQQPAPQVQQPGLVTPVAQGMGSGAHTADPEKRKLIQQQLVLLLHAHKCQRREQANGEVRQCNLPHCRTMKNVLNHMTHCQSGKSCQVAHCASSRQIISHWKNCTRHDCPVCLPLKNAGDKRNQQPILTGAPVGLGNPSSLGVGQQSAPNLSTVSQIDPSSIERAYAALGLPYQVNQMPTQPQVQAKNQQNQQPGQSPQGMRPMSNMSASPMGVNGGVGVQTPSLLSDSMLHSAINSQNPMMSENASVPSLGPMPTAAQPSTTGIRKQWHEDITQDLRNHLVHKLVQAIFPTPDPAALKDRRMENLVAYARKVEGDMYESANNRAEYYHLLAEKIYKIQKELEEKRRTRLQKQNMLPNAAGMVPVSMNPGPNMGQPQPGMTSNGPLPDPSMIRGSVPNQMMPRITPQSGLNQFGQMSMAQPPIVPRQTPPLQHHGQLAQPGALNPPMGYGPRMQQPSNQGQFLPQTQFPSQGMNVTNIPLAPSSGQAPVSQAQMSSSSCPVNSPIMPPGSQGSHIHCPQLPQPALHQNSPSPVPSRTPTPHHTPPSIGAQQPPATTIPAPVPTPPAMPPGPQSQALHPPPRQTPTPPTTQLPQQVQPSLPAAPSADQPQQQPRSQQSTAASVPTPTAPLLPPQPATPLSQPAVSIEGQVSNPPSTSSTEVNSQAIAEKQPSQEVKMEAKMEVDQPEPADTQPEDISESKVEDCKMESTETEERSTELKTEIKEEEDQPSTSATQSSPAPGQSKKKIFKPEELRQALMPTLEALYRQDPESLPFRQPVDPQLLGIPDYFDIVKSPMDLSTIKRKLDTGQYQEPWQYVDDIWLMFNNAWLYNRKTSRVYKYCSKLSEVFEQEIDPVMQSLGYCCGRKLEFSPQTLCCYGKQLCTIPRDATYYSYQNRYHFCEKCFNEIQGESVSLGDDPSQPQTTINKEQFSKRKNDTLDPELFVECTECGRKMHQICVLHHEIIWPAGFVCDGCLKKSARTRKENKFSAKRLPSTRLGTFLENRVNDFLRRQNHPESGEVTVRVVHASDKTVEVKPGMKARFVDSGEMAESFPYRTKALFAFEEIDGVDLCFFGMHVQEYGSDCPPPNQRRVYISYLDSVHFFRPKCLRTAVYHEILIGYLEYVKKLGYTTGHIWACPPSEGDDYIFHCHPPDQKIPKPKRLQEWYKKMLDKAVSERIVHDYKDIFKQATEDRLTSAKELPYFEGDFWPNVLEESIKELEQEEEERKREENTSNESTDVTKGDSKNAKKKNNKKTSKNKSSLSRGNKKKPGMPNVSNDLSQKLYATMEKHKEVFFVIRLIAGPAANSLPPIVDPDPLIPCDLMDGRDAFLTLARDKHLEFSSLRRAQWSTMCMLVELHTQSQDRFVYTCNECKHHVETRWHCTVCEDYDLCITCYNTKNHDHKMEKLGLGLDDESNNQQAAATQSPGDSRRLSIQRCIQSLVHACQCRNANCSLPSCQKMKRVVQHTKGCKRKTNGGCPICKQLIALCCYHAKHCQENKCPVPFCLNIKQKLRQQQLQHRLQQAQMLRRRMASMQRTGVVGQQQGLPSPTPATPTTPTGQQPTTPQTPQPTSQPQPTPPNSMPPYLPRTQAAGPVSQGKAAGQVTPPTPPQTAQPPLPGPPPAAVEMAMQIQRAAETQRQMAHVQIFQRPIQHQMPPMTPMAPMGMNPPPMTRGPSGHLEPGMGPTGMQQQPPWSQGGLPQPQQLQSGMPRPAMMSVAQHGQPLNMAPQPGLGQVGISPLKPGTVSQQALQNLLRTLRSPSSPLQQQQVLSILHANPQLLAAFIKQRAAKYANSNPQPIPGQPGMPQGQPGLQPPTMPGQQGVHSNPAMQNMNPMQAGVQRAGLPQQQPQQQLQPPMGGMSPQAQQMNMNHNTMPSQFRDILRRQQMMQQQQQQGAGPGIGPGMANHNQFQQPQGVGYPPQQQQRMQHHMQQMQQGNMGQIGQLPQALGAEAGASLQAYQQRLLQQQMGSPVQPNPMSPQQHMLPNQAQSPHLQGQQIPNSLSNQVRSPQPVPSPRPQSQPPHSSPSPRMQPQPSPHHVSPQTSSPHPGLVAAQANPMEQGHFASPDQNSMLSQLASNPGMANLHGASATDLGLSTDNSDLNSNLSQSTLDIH

Structure (SMILES): CNC(=O)N1CCc2c(c(N3CCCc4cc(-c5cnn(CC(=O)NCCNc6cccc7c6C(=O)N(C6CCC(=O)NC6=O)C7=O)c5)c(C(F)F)cc43)nn2C2CCOCC2)C1 (stereo not drawn) [P-037, 3-(7-(Difluoromethyl)-6-(1-(2-((2-((2-(2,6-dioxopiperidin-3-yl)-1,3-dioxoisoindolin-4-yl)amino)ethyl)amino)-2-oxoethyl)-1H-pyrazol-4-yl)-3,4-dihydroquinolin-1(2H)-yl)-N-methyl-1-(tetrahydro-2H-pyran-4-yl)-1,4,6,7-tetrahydro-5H-pyrazolo[4,3-c]pyridine-5-carboxamide]
- IC50 ([1]; CellTiter-Glo (Table 2)): > 10000 nM
- inhibition at 0.01 µM [2, 3]: < 20%

Structure (SMILES): CNC(=O)N1CCc2c(c(N3CCCc4cc(-c5cnn(C)c5)c(C(F)F)cc43)nn2C2CCN(C(=O)CCCC(=O)N[C@H](C(=O)N3C[C@H](O)C[C@H]3C(=O)NCc3ccc(-c4scnc4C)cc3)C(C)(C)C)CC2)C1 [P-057, 3-(7-(Difluoromethyl)-6-(1-methyl-1H-pyrazol-4-yl)-3,4-dihydroquinolin-1(2H)-yl)-1-(1-(5-(((S)-1-((2S,4R)-4-hydroxy-2-((4-(4-methylthiazol-5-yl)benzyl)carbamoyl)pyrrolidin-1-yl)-3,3-dimethyl-1-oxobutan-2-yl)amino)-5-oxopentanoyl)piperidin-4-yl)-N-methyl-1,4,6,7-tetrahydro-5H-pyrazolo[4,3-c]pyridine-5-carboxamide]
- IC50 ([1]; CellTiter-Glo (Table 3)): 76.6 nM
- inhibition at 0.01 µM [2, 4]: < 20%

Structure (SMILES): CNC(=O)N1CCc2c(c(N3CCCc4cc(-c5cnn(CC(=O)NCCCNc6cccc7c6C(=O)N(C6CCC(=O)NC6=O)C7=O)c5)c(C(F)F)cc43)nn2C2CCOCC2)C1 (stereo not drawn) [P-038, 3-(7-(Difluoromethyl)-6-(1-(2-((3-((2-(2,6-dioxopiperidin-3-yl)-1,3-dioxoisoindolin-4-yl)amino)propyl)amino)-2-oxoethyl)-1H-pyrazol-4-yl)-3,4-dihydroquinolin-1(2H)-yl)-N-methyl-1-(tetrahydro-2H-pyran-4-yl)-1,4,6,7-tetrahydro-5H-pyrazolo[4,3-c]pyridine-5-carboxamide]
- IC50 ([1]; CellTiter-Glo (Table 2)): 385 nM
- inhibition at 0.01 µM [2, 3]: < 20%

Structure (SMILES): CC(=O)N1CCc2c(c(N3CCCc4cc(-c5cnn(C)c5)c(C(F)F)cc43)nn2C2CCN(C(=O)CCCCNc3cccc4c3n(C)c(=O)n4C3CCC(=O)NC3=O)CC2)C1 (stereo not drawn) [P-128, 3-(4-((5-(4-(5-Acetyl-3-(7-(difluoromethyl)-6-(1-methyl-1H-pyrazol-4-yl)-3,4-dihydroquinolin-1(2H)-yl)-4,5,6,7-tetrahydro-1H-pyrazolo[4,3-c]pyridin-1-yl)piperidin-1-yl)-5-oxopentyl)amino)-3-methyl-2-oxo-2,3-dihydro-1H-benzo[d]imidazol-1-yl)piperidine-2,6-dione]
- IC50 ([1]; CellTiter-Glo (Table 3)): 244 nM
- inhibition at 0.01 µM [2, 4]: 20 to 50%

Structure (SMILES): CC(=O)N1CCc2c(c(N3CCCc4cc(-c5cnn(C)c5)c(C(F)F)cc43)nn2C2CCN(C(=O)CN3CCN(CCc4cccc5c4C(=O)N(C4CCC(=O)NC4=O)C5=O)CC3)CC2)C1 (stereo not drawn) [P-169, 4-(2-(4-(2-(4-(5-Acetyl-3-(7-(difluoromethyl)-6-(1-methyl-1H-pyrazol-4-yl)-3,4-dihydroquinolin-1(2H)-yl)-4,5,6,7-tetrahydro-1H-pyrazolo[4,3-c]pyridin-1-yl)piperidin-1-yl)-2-oxoethyl)piperazin-1-yl)ethyl)-2-(2,6-dioxopiperidin-3-yl)isoindoline-1,3-dione]
- IC50 ([1]; CellTiter-Glo (Table 3)): > 500 nM
- inhibition at 0.01 µM [2, 4]: < 20%

Structure (SMILES): CC(=O)N1CCc2c(c(N3CCCc4cc(-c5cnn(C)c5)c(C(F)F)cc43)nn2C2CCN(Cc3ccc(COc4cccc5c4CN(C4CCC(=O)NC4=O)C5=O)cc3)CC2)C1 (stereo not drawn) [P-166, 3-(4-((4-((4-(5-acetyl-3-(7-(difluoromethyl)-6-(1-methyl-1H-pyrazol-4-yl)-3,4-dihydroquinolin-1(2H)-yl)-4,5,6,7-tetrahydro-1H-pyrazolo[4,3-c]pyridin-1-yl)piperidin-1-yl)methyl)benzyl)oxy)-1-oxoisoindolin-2-yl)piperidine-2,6-dione]
- IC50 ([1]; CellTiter-Glo (Table 3)): 0.3 nM
- inhibition at 0.01 µM [2, 4]: > 80%

Structure (SMILES): CC(=O)N1CCc2c(c(N3CCCc4cc(-c5cnn(C)c5)c(C(F)F)cc43)nn2C2CCN(C(=O)CN3CC(CCNc4cccc5c4C(=O)N(C4CCC(=O)NC4=O)C5=O)C3)CC2)C1 (stereo not drawn) [P-170, 4-((2-(1-(2-(4-(5-Acetyl-3-(7-(difluoromethyl)-6-(1-methyl-1H-pyrazol-4-yl)-3,4-dihydroquinolin-1(2H)-yl)-4,5,6,7-tetrahydro-1H-pyrazolo[4,3-c]pyridin-1-yl)piperidin-1-yl)-2-oxoethyl)azetidin-3-yl)ethyl)amino)-2-(2,6-dioxopiperidin-3-yl)isoindoline-1,3-dione]
- IC50 ([1]; CellTiter-Glo (Table 3)): 32.6 nM
- inhibition at 0.01 µM [2, 4]: 20 to 50%

Structure (SMILES): CNC(=O)N1CCc2c(c(N3CCCc4cc(-c5cnn(CC(=O)NCCCCCCCNc6cccc7c6C(=O)N(C6CCC(=O)NC6=O)C7=O)c5)c(C(F)F)cc43)nn2C2CCOCC2)C1 (stereo not drawn) [P-042]
- IC50 ([1]; CellTiter-Glo (Table 2)): 39 nM
- inhibition at 0.01 µM [2, 3]: < 20%

Structure (SMILES): CNC(=O)N1CCc2c(c(N3CCCc4cc(-c5cnn(C)c5)c(C(F)F)cc43)nn2C2CCN(C(=O)CCOCCOCCC(=O)N[C@H](C(=O)N3C[C@H](O)C[C@H]3C(=O)NCc3ccc(-c4scnc4C)cc3)C(C)(C)C)CC2)C1 [P-067, 3-(7-(Difluoromethyl)-6-(1-methyl-1H-pyrazol-4-yl)-3,4-dihydroquinolin-1(2H)-yl)-1-(1-(3-(2-(3-(((S)-1-((2S,4R)-4-hydroxy-2-((4-(4-methylthiazol-5-yl)benzyl)carbamoyl)pyrrolidin-1-yl)-3,3-dimethyl-1-oxobutan-2-yl)amino)-3-oxopropoxy)ethoxy)propanoyl)piperidin-4-yl)-N-methyl-1,4,6,7-tetrahydro-5H-pyrazolo[4,3-c]pyridine-5-carboxamide]
- IC50 ([1]; CellTiter-Glo (Table 3)): 32 nM
- inhibition at 0.01 µM [2, 4]: < 20%

Structure (SMILES): CC(=O)N1CCc2c(c(N3CCCc4cc(-c5cnn(C)c5)c(C(F)F)cc43)nn2C2CCN(C(=O)CCCCCCCCNc3cccc4c3n(C)c(=O)n4C3CCC(=O)NC3=O)CC2)C1 (stereo not drawn) [P-160, 3-(4-((9-(4-(5-acetyl-3-(7-(difluoromethyl)-6-(1-methyl-1H-pyrazol-4-yl)-3,4-dihydroquinolin-1(2H)-yl)-4,5,6,7-tetrahydro-1H-pyrazolo[4,3-c]pyridin-1-yl)piperidin-1-yl)-9-oxononyl)amino)-3-methyl-2-oxo-2,3-dihydro-1H-benzo[d]imidazol-1-yl)piperidine-2,6-dione]
- IC50 ([1]; CellTiter-Glo (Table 3)): 0.2 nM
- inhibition at 0.01 µM [2, 4]: > 80%

More lines, now with the values ahead:

- IC50 ([1]; CellTiter-Glo (Table 3)): 13.1 nM
- inhibition at 0.01 µM [2, 4]: 50 to 80%
Structure (SMILES): CNC(=O)N1CCc2c(c(N3CCCc4cc(-c5cnn(C)c5)c(C(F)F)cc43)nn2C2CCN(C(=O)CCCCCOc3cccc4c3C(=O)N(C3CCC(=O)NC3=O)C4=O)CC2)C1 (stereo not drawn) [P-084, 3-(7-(Difluoromethyl)-6-(1-methyl-1H-pyrazol-4-yl)-3,4-dihydroquinolin-1(2H)-yl)-1-(1-(6-((2-(2,6-dioxopiperidin-3-yl)-1,3-dioxoisoindolin-4-yl)oxy)hexanoyl)piperidin-4-yl)-N-methyl-1,4,6,7-tetrahydro-5H-pyrazolo[4,3-c]pyridine-5-carboxamide]

- IC50 ([1]; CellTiter-Glo (Table 3)): 90.1 nM
- inhibition at 0.01 µM [2, 4]: < 20%
Structure (SMILES): CC(=O)N1CCc2c(c(N3CCCc4cc(-c5cnn(C)c5)c(C(F)F)cc43)nn2C2CCN(C(=O)CN3CC(CNc4cccc5c4C(=O)N(C4CCC(=O)NC4=O)C5=O)C3)CC2)C1 (stereo not drawn) [P-158, 4-(((1-(2-(4-(5-Acetyl-3-(7-(difluoromethyl)-6-(1-methyl-1H-pyrazol-4-yl)-3,4-dihydroquinolin-1(2H)-yl)-4,5,6,7-tetrahydro-1H-pyrazolo[4,3-c]pyridin-1-yl)piperidin-1-yl)-2-oxoethyl)azetidin-3-yl)methyl)amino)-2-(2,6-dioxopiperidin-3-yl)isoindoline-1,3-dione]

- IC50 ([1]; CellTiter-Glo (Table 3)): 12.9 nM
- inhibition at 0.01 µM [2, 4]: > 80%
Structure (SMILES): CNC(=O)N1CCc2c(c(N3CCCc4cc(-c5cnn(C)c5)c(C(F)F)cc43)nn2C2CCN(C(=O)CCCCCNc3cccc4c3n(C)c(=O)n4C3CCC(=O)NC3=O)CC2)C1 (stereo not drawn) [P-109, 3-(7-(difluoromethyl)-6-(1-methyl-1H-pyrazol-4-yl)-3,4-dihydroquinolin-1(2H)-yl)-1-(1-(6-((1-(2,6-dioxopiperidin-3-yl)-3-methyl-2-oxo-2,3-dihydro-1H-benzo[d]imidazol-4-yl)amino)hexanoyl)piperidin-4-yl)-N-methyl-1,4,6,7-tetrahydro-5H-pyrazolo[4,3-c]pyridine-5-carboxamide]

- IC50 ([1]; CellTiter-Glo (Table 3)): 402 nM
- inhibition at 0.01 µM [2, 4]: 20 to 50%
Structure (SMILES): CNC(=O)N1CCc2c(c(N3CCCc4cc(-c5cnn(C)c5)c(C(F)F)cc43)nn2C2CCN(C(=O)CCCCNc3cccc4c3n(C)c(=O)n4C3CCC(=O)NC3=O)CC2)C1 (stereo not drawn) [P-127, 3-(7-(Difluoromethyl)-6-(1-methyl-1H-pyrazol-4-yl)-3,4-dihydroquinolin-1(2H)-yl)-1-(1-(5-((1-(2,6-dioxopiperidin-3-yl)-3-methyl-2-oxo-2,3-dihydro-1H-benzo[d]imidazol-4-yl)amino)pentanoyl)piperidin-4-yl)-N-methyl-1,4,6,7-tetrahydro-5H-pyrazolo[4,3-c]pyridine-5-carboxamide]

- IC50 ([1]; CellTiter-Glo (Table 3)): 49 nM
- inhibition at 0.01 µM [2, 4]: > 80%
Structure (SMILES): CNC(=O)N1CCc2c(c(N3CCCc4cc(-c5cnn(C)c5)c(C(F)F)cc43)nn2C2CCN(CCCCCCCc3cccc4c3C(=O)N(C3CCC(=O)NC3=O)C4=O)CC2)C1 (stereo not drawn) [P-097, 3-(7-(difluoromethyl)-6-(1-methyl-1H-pyrazol-4-yl)-3,4-dihydroquinolin-1(2H)-yl)-1-(1-(7-(2-(2,6-dioxopiperidin-3-yl)-1,3-dioxoisoindolin-4-yl)heptyl)piperidin-4-yl)-N-methyl-1,4,6,7-tetrahydro-5H-pyrazolo[4,3-c]pyridine-5-carboxamide]
